Measured values published in US8435980B2 (AbbVie Inc., priority 2009, dated 2013).

What follows are compounds tested against T1, Cdc7 (BEV coexpressed huCDC7/DBF4) (Homo sapiens, UniProt O00311) (assay: Cdc7 enzyme inhibition assay ([33P]ATP, biotinylated peptide substrate, FlashPlate)). Conditions: Table 3; enzyme inhibition data (Ki).
T1 construct: made in house; host or cells: BEV (baculovirus expression vector) co-expression; insect cells are implied but no cell line is named
Type: biochemical
Protocol: Cdc7 (BEV coexpressed huCDC7/DBF4) is prepared internally. Cdc7 assays are conducted as follows with final concentrations as listed. […] Reactions are quenched after 1 hr by the addition of 90 μL stop buffer (50 mM EDTA, 2M NaCl). […] (Ki) for exemplary compounds.

T1 sequence (O00311 whole entry): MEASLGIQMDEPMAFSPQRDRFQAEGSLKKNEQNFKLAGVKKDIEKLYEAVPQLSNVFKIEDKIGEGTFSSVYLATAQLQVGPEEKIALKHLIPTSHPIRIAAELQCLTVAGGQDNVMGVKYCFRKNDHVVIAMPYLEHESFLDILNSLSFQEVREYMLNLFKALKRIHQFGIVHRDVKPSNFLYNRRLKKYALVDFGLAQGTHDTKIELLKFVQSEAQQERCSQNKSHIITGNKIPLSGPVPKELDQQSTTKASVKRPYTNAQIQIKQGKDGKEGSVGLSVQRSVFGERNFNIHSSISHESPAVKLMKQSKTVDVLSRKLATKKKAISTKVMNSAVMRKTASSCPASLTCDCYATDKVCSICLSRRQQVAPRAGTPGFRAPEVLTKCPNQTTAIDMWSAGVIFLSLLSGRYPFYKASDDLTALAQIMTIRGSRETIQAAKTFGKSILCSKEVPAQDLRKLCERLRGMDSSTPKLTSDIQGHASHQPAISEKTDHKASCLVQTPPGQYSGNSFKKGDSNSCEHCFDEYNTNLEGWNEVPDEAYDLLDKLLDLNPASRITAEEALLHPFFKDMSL
T1 sequence (Q9UBU7 whole entry partner): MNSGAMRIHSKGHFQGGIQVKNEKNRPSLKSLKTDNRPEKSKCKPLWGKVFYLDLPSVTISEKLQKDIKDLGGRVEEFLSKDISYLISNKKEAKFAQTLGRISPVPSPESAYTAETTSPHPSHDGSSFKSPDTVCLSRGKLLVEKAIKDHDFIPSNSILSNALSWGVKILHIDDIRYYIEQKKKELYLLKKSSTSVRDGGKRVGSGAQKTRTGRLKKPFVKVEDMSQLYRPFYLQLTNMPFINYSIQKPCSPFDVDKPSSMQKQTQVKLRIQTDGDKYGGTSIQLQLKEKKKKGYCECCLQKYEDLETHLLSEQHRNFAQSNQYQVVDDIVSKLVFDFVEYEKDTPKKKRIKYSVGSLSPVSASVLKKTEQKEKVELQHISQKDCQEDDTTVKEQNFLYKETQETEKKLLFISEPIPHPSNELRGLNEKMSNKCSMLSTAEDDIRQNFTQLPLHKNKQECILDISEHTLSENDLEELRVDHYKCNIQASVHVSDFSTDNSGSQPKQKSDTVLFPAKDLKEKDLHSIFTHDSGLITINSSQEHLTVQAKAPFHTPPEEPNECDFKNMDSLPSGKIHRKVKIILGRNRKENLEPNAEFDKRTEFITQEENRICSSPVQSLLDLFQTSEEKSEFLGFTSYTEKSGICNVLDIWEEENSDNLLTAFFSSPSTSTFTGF

Row | Structure (SMILES) | Ki [nM]
1 | COc1cnc2[nH]cc(-c3cc(Cl)nc(N[C@H]4CC[C@H](NC(=O)C(F)(F)F)CC4)c3)c2c1 [Example 430, N-(trans-4-{[6-chloro-4-(5-methoxy-1H-pyrrolo[2,3-b]pyridin-3-yl)pyridin-2-yl]amino}cyclohexyl)-2,2,2-trifluoroacetamide] | < 10
2 | COc1ccc(-c2cnc3[nH]cc(-c4cc(Cl)nc(NC5CCCCC5)c4)c3c2)cn1 [Example 431, 6-chloro-N-cyclohexyl-4-[5-(6-methoxypyridin-3-yl)-1H-pyrrolo[2,3-b]pyridin-3-yl]pyridin-2-amine] | < 10
3 | CCN(CCO)CC(=O)N[C@H]1CC[C@H](Nc2cc(-c3c[nH]c4ncc(OC)cc34)cc(Cl)n2)CC1 [Example 432, N-(trans-4-{[6-chloro-4-(5-methoxy-1H-pyrrolo[2,3-b]pyridin-3-yl)pyridin-2-yl]amino}cyclohexyl)-N~2~-ethyl-N~2~-(2-hydroxyethyl)glycinamide] | < 10
4 | COc1cnc2[nH]cc(-c3cc(Cl)nc(N[C@H]4CC[C@H](NC(=O)CNCCO)CC4)c3)c2c1 [Example 433, N-(trans-4-{[6-chloro-4-(5-methoxy-1H-pyrrolo[2,3-b]pyridin-3-yl)pyridin-2-yl]amino}cyclohexyl)-N~2~-(2-hydroxyethyl)glycinamide] | < 10
5 | CN(C)c1ccc(Nc2cc(-c3c[nH]c4ncccc34)cc(Cl)n2)cc1 [Example 434, N′-[6-chloro-4-(1H-pyrrolo[2,3-b]pyridin-3-yl)pyridin-2-yl]-N,N-dimethylbenzene-1,4-diamine] | < 10
6 | Clc1cc(-c2c[nH]c3ncccc23)cc(Nc2ccc3c(c2)CCC3)n1 [Example 435, 6-chloro-N-(2,3-dihydro-1H-inden-5-yl)-4-(1H-pyrrolo[2,3-b]pyridin-3-yl)pyridin-2-amine] | < 10
7 | Clc1cc(-c2c[nH]c3ncccc23)cc(Nc2ccc3c(c2)OCCO3)n1 [Example 436, 6-chloro-N-(2,3-dihydro-1,4-benzodioxin-6-yl)-4-(1H-pyrrolo[2,3-b]pyridin-3-yl)pyridin-2-amine] | < 10
8 | Clc1cc(-c2c[nH]c3ncccc23)cc(Nc2ccc(N3CCOCC3)cc2)n1 [Example 438, 6-chloro-N-[4-(morpholin-4-yl)phenyl]-4-(1H-pyrrolo[2,3-b]pyridin-3-yl)pyridin-2-amine] | < 10
9 | Clc1cc(-c2c[nH]c3ncccc23)cc(Nc2cccc3c2CCCC3)n1 [Example 439, 6-chloro-4-(1H-pyrrolo[2,3-b]pyridin-3-yl)-N-(5,6,7,8-tetrahydronaphthalen-1-yl)pyridin-2-amine] | < 10
10 | CC(C)(C)c1ccc(Nc2cc(-c3c[nH]c4ncccc34)cc(Cl)n2)cc1 [Example 440, N-(4-tert-butylphenyl)-6-chloro-4-(1H-pyrrolo[2,3-b]pyridin-3-yl)pyridin-2-amine] | < 10
11 | Clc1cc(-c2c[nH]c3ncccc23)cc(Nc2cccc3c2CCC3)n1 [Example 441, 6-chloro-N-(2,3-dihydro-1H-inden-4-yl)-4-(1H-pyrrolo[2,3-b]pyridin-3-yl)pyridin-2-amine] | < 10
12 | Clc1cc(-c2c[nH]c3ncccc23)cc(Nc2ccc3ncccc3c2)n1 [Example 442, N-[6-chloro-4-(1H-pyrrolo[2,3-b]pyridin-3-yl)pyridin-2-yl]quinolin-6-amine] | < 10
13 | CN1CCN(c2ccc(Nc3cc(-c4c[nH]c5ncccc45)cc(Cl)n3)cc2)CC1 [Example 443, 6-chloro-N-[4-(4-methylpiperazin-1-yl)phenyl]-4-(1H-pyrrolo[2,3-b]pyridin-3-yl)pyridin-2-amine] | < 10
14 | O=S1(=O)CCN(c2ccc(Nc3cc(-c4c[nH]c5ncccc45)cc(Cl)n3)cc2)CC1 [Example 444, 6-chloro-N-[4-(1,1-dioxidothiomorpholin-4-yl)phenyl]-4-(1H-pyrrolo[2,3-b]pyridin-3-yl)pyridin-2-amine] | < 10
15 | COc1cnc2[nH]cc(-c3cc(Cl)nc(N[C@H]4CC[C@H](NC(=O)CNC(C)C)CC4)c3)c2c1 [Example 446, N-(trans-4-{[6-chloro-4-(5-methoxy-1H-pyrrolo[2,3-b]pyridin-3-yl)pyridin-2-yl]amino}cyclohexyl)-N~2~-propan-2-ylglycinamide] | < 10
16 | COc1cnc2[nH]cc(-c3cc(Cl)nc(NC4CCCC(NC(=O)CN(C)C)C4)c3)c2c1 (stereo not shown) [Example 448, N-(3-{[6-chloro-4-(5-methoxy-1H-pyrrolo[2,3-b]pyridin-3-yl)pyridin-2-yl]amino}cyclohexyl)-N~2~,N~2~-dimethylglycinamide] | < 10
17 | Clc1cc(-c2c[nH]c3ncccc23)cc(Nc2ccc(N3CCN(Cc4ccccn4)CC3)cc2)n1 [Example 449, 6-chloro-N-{4-[4-(pyridin-2-ylmethyl)piperazin-1-yl]phenyl}-4-(1H-pyrrolo[2,3-b]pyridin-3-yl)pyridin-2-amine] | < 10
18 | Clc1cc(-c2c[nH]c3ncccc23)cc(Nc2ccc(N3CCN(CC4CCCCC4)CC3)cc2)n1 [Example 450, 6-chloro-N-{4-[4-(cyclohexylmethyl)piperazin-1-yl]phenyl}-4-(1H-pyrrolo[2,3-b]pyridin-3-yl)pyridin-2-amine] | < 10
19 | CC(C)CN1CCN(c2ccc(Nc3cc(-c4c[nH]c5ncccc45)cc(Cl)n3)cc2)CC1 [Example 451, 6-chloro-N-{4-[4-(2-methylpropyl)piperazin-1-yl]phenyl}-4-(1H-pyrrolo[2,3-b]pyridin-3-yl)pyridin-2-amine] | < 10
20 | Nc1ccc(-c2cnc3[nH]cc(-c4cc(Cl)nc(N[C@H]5CC[C@H](NS(=O)(=O)C6CC6)CC5)c4)c3c2)cn1 [Example 452, N-[trans-4-({4-[5-(6-aminopyridin-3-yl)-1H-pyrrolo[2,3-b]pyridin-3-yl]-6-chloropyridin-2-yl}amino)cyclohexyl]cyclopropanesulfonamide] | < 10
21 | O=S(=O)(N[C@H]1CC[C@H](Nc2cc(-c3c[nH]c4ncc(-c5cccnc5)cc34)cc(Cl)n2)CC1)C1CC1 [Example 453, N-[trans-4-({6-chloro-4-[5-(pyridin-3-yl)-1H-pyrrolo[2,3-b]pyridin-3-yl]pyridin-2-yl}amino)cyclohexyl]cyclopropanesulfonamide] | < 10
22 | NS(=O)(=O)c1cccc(-c2cnc3[nH]cc(-c4cc(Cl)nc(N[C@H]5CC[C@H](NS(=O)(=O)C6CC6)CC5)c4)c3c2)c1 [Example 454, 3-{3-[2-chloro-6-({trans-4-[(cyclopropylsulfonyl)amino]cyclohexyl}amino)pyridin-4-yl]-1H-pyrrolo[2,3-b]pyridin-5-yl}benzenesulfonamide] | < 10
23 | O=S(=O)(N[C@H]1CC[C@H](Nc2cc(-c3c[nH]c4ncc(-c5cncnc5)cc34)cc(Cl)n2)CC1)C1CC1 [Example 455, N-[trans-4-({6-chloro-4-[5-(pyrimidin-5-yl)-1H-pyrrolo[2,3-b]pyridin-3-yl]pyridin-2-yl}amino)cyclohexyl] cyclopropanesulfonamide] | < 10
24 | C[C@@H](Nc1nc(Cl)cc(-c2c[nH]c3ncccc23)n1)c1ccccc1 [Example 456, 4-chloro-N-[(1R)-1-phenylethyl]-6-(1H-pyrrolo[2,3-b]pyridin-3-yl)pyrimidin-2-amine] | < 10

The next lines start with the values.

Row | Ki [nM] | Structure (SMILES)
25 | < 10 | COc1cnc2[nH]cc(-c3cc(Cl)nc(N[C@H]4CC[C@H](NC(=O)CN[C@H]5CC[C@H](O)CC5)CC4)c3)c2c1 [Example 445, N-(trans-4-{[6-chloro-4-(5-methoxy-1H-pyrrolo[2,3-b]pyridin-3-yl)pyridin-2-yl]amino}cyclohexyl)-N~2~-(trans-4-hydroxycyclohexyl)glycinamide]
26 | < 10 | COc1cnc2[nH]cc(-c3cc(Cl)nc(NC4CCC(CC5CCC(NS(=O)(=O)c6c(C)noc6C)CC5)CC4)c3)c2c1 (stereo not shown) [Example 447, N-{4-[(4-{[6-chloro-4-(5-methoxy-1H-pyrrolo[2,3-b]pyridin-3-yl)pyridin-2-yl]amino}cyclohexyl)methyl]cyclohexyl}-3,5-dimethyl-1,2-oxazole-4-sulfonamide]
27 | < 10 | Oc1cccc(CNc2nc(Cl)cc(-c3c[nH]c4ncccc34)n2)c1 [Example 457, 3-({[4-chloro-6-(1H-pyrrolo[2,3-b]pyridin-3-yl)pyrimidin-2-yl]amino}methyl)phenol]
28 | < 10 | Oc1ccc(CNc2nc(Cl)cc(-c3c[nH]c4ncccc34)n2)cc1 [Example 458, 4-({[4-chloro-6-(1H-pyrrolo[2,3-b]pyridin-3-yl)pyrimidin-2-yl]amino}methyl)phenol]
29 | < 10 | CN(C)C1CCC(Nc2nc(Cl)cc(-c3c[nH]c4ncccc34)n2)CC1 (stereo not shown) [Example 459, N′-[4-chloro-6-(1H-pyrrolo[2,3-b]pyridin-3-yl)pyrimidin-2-yl]-N,N-dimethylcyclohexane-1,4-diamine]
30 | < 10 | NC1CCC(CC2CCC(Nc3nc(Cl)cc(-c4c[nH]c5ncccc45)n3)CC2)CC1 (stereo not shown) [Example 465, N-{4-[(4-aminocyclohexyl)methyl]cyclohexyl}-4-chloro-6-(1H-pyrrolo[2,3-b]pyridin-3-yl)pyrimidin-2-amine]
31 | < 10 | NCCNc1nc(Cl)cc(-c2c[nH]c3ncccc23)n1 [Example 466, N-[4-chloro-6-(1H-pyrrolo[2,3-b]pyridin-3-yl)pyrimidin-2-yl]ethane-1,2-diamine]
32 | < 10 | OCCNc1nc(Cl)cc(-c2c[nH]c3ncccc23)n1 [Example 467, 2-{[4-chloro-6-(1H-pyrrolo[2,3-b]pyridin-3-yl)pyrimidin-2-yl]amino}ethanol]
33 | < 10 | NCCOCCOCCNc1nc(Cl)cc(-c2c[nH]c3ncccc23)n1 [Example 468, N-{2-[2-(2-aminoethoxy)ethoxy]ethyl}-4-chloro-6-(1H-pyrrolo[2,3-b]pyridin-3-yl)pyrimidin-2-amine]
34 | < 10 | O=C(NC1CCCC1)N[C@H]1CC[C@H](Nc2nc(Cl)cc(-c3c[nH]c4ncccc34)n2)CC1 [Example 470, 1-(trans-4-{[4-chloro-6-(1H-pyrrolo[2,3-b]pyridin-3-yl)pyrimidin-2-yl]amino}cyclohexyl)-3-cyclopentylurea]
